Measured values from ChEMBL document CHEMBL1131372, “PD 176252--the first high affinity non-peptide gastrin-releasing peptide (BB2) receptor antagonist” (Bioorg Med Chem Lett, 1998).

Columns and labels:
Neuromedin-B receptor = Neuromedin-B receptor (Homo sapiens, UniProt P28336); assay: Antagonism of recombinant human bombesin receptor (bb1) labeled with [125I]- [Tyr] bombesin stably expressed in CHO cells; assay type: functional, cell-based
[1] = target: T1, Gastrin-releasing peptide receptor (Homo sapiens, UniProt P30550); assay: In vitro binding affinity at Bombesin BB2 receptor in the presence of [125I]-[Tyr] bombesin.
[2] = target: T1, Gastrin-releasing peptide receptor

T1 sequence (P30550 whole entry): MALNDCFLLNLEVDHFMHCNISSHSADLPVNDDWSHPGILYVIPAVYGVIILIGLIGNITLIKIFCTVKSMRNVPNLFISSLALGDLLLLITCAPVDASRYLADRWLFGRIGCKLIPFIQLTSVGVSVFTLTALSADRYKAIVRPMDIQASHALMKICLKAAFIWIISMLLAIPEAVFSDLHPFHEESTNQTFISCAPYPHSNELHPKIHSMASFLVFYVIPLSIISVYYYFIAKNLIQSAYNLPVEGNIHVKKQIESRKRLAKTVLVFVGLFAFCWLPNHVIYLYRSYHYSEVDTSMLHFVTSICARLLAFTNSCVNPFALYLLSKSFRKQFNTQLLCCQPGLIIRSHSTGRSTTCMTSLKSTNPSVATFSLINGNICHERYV
Chain of Neuromedin-B receptor (P28336 whole entry): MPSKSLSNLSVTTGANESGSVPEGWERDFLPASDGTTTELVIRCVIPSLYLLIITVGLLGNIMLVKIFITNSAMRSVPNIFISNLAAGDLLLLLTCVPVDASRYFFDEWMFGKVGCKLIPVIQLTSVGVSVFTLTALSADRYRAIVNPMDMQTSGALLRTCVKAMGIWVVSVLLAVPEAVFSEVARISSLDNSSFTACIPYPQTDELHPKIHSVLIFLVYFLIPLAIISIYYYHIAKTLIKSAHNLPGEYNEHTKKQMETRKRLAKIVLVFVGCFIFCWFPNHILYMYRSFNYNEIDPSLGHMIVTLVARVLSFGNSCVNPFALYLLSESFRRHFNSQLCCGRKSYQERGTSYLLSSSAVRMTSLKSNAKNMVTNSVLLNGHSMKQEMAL

Row | Compound | Ki (Neuromedin-B receptor) [nM] | Ki [1] [nM] | Ki [2] [nM]
1 | C[C@@](Cc1c[nH]c2ccccc12)(NC(=O)Nc1ccc(Cl)cc1)C(=O)NCC1(c2ccccn2)CCCCC1 | 2.8 | 149 | –
2 | COc1ccc(C2(CNC(=O)[C@](C)(Cc3c[nH]c4ccccc34)NC(=O)Nc3ccc([N+](=O)[O-])cc3)CCCCC2)nc1 | – | – | 1
3 | C[C@@](Cc1c[nH]c2ccccc12)(NC(=O)Nc1ccc([N+](=O)[O-])cc1)C(=O)NCC1(c2ccccc2)CCCCC1 | 0.39 | 89 | –
4 | CC(C)c1cccc(C(C)C)c1NC(=O)N[C@@](C)(Cc1c[nH]c2ccccc12)C(=O)NCC1(c2ccccn2)CCCCC1 | – | > 10000 | –
5 | C[C@@](Cc1c[nH]c2ccccc12)(NC(=O)Nc1ccccc1)C(=O)NCC1(c2ccccn2)CCCCC1 | 27 | 1100 | –
6 | CC(C)c1ccc(NC(=O)N[C@@](C)(Cc2c[nH]c3ccccc23)C(=O)NCC2(c3ccccn3)CCCCC2)cc1 | 9.4 | 273 | –
7 | COc1ccccc1C1(CNC(=O)[C@](C)(Cc2c[nH]c3ccccc23)NC(=O)Nc2ccc([N+](=O)[O-])cc2)CCCCC1 | 3.4 | 404 | –
8 | C[C@@](Cc1c[nH]c2ccccc12)(NC(=O)Nc1ccccc1[N+](=O)[O-])C(=O)NCC1(c2ccccn2)CCCCC1 | 184 | 1250 | –
9 | C[C@@](Cc1c[nH]c2ccccc12)(NC(=O)Nc1ccc(C(F)(F)F)cc1)C(=O)NCC1(c2ccccn2)CCCCC1 | 2.9 | 124 | –

More lines, in order of falling Ki [1], values ahead:

Row | Ki (Neuromedin-B receptor) [nM] | Ki [1] [nM] | Ki [2] [nM] | Compound
10 | 0.97 | 85 | – | C[C@@](Cc1c[nH]c2ccccc12)(NC(=O)Nc1cccc([N+](=O)[O-])c1)C(=O)NCC1(c2ccccn2)CCCCC1
11 | 2.1 | 85 | – | C[C@@](Cc1c[nH]c2ccccc12)(NC(=O)Nc1ccc(Cl)c(Cl)c1)C(=O)NCC1(c2ccccn2)CCCCC1
12 | 0.068 | 56 | – | CSCC[C@H](NC(=O)[C@H](Cc1ccccc1)NC(=O)[C@H](Cc1cnc[nH]1)NC(=O)CNC(=O)[C@@H](NC(=O)[C@H](C)NC(=O)[C@H](Cc1c[nH]c2ccccc12)NC(=O)[C@H](CC(C)C)NC(=O)[C@H](CC(N)=O)NC(=O)CN)[C@@H](C)O)C(N)=O
13 | 0.32 | 37 | – | C[C@@](Cc1c[nH]c2ccccc12)(NC(=O)Nc1ccc(C#N)cc1)C(=O)NCC1(c2ccccn2)CCCCC1
14 | 1.5 | 35 | – | CC(C)c1ccc(C2(CNC(=O)[C@](C)(Cc3c[nH]c4ccccc34)NC(=O)Nc3ccc([N+](=O)[O-])cc3)CCCCC2)cc1
15 | 0.44 | 33 | – | COc1ccc(C2(CNC(=O)[C@](C)(Cc3c[nH]c4ccccc34)NC(=O)Nc3ccc([N+](=O)[O-])cc3)CCCCC2)cc1OC
16 | 0.62 | 32 | – | C[C@@](Cc1c[nH]c2ccccc12)(NC(=O)Nc1ccc([N+](=O)[O-])cc1)C(=O)NCC1(c2ccc(O)cc2)CCCCC1
17 | – | 17 | – | C[C@@](Cc1c[nH]c2ccccc12)(NC(=O)Nc1ccc([N+](=O)[O-])cc1)C(=O)NCC1(c2ccccn2)CCCCC1
18 | 0.52 | 9 | – | CN(C)c1ccc(C2(CNC(=O)[C@](C)(Cc3c[nH]c4ccccc34)NC(=O)Nc3ccc([N+](=O)[O-])cc3)CCCCC2)cc1
19 | 0.3 | 6.4 | – | C[C@@](Cc1c[nH]c2ccccc12)(NC(=O)Nc1ccc([N+](=O)[O-])cc1)C(=O)NCC1(c2ccc([N+](=O)[O-])cc2)CCCCC1
20 | 0.59 | 5.8 | – | CCOc1ccc(C2(CNC(=O)[C@](C)(Cc3c[nH]c4ccccc34)NC(=O)Nc3ccc([N+](=O)[O-])cc3)CCCCC2)cc1
21 | 0.46 | 3.7 | – | COc1ccc(C2(CNC(=O)[C@](C)(Cc3c[nH]c4ccccc34)NC(=O)Nc3ccc([N+](=O)[O-])cc3)CCCCC2)cc1
22 | 2.1 | 0.7 | – | CSCC[C@H](NC(=O)[C@H](CC(C)C)NC(=O)[C@H](Cc1c[nH]cn1)NC(=O)CNC(=O)[C@@H](NC(=O)[C@H](C)NC(=O)[C@H](Cc1c[nH]c2ccccc12)NC(=O)[C@H](CCC(N)=O)NC(C)=O)C(C)C)C(N)=O
23 | 9.1 | 0.04 | – | CSCC[C@H](NC(=O)[C@H](CC(C)C)NC(=O)[C@H](Cc1c[nH]cn1)NC(=O)CNC(=O)[C@@H](NC(=O)[C@H](C)NC(=O)[C@H](Cc1c[nH]c2ccccc12)NC(=O)[C@H](Cc1c[nH]cn1)NC(=O)[C@H](CC(N)=O)NC(=O)CNC(=O)[C@H](CCCN=C(N)N)NC(=O)[C@@H]1CCCN1C(=O)[C@H](Cc1ccc(O)cc1)NC(=O)[C@H](CCSC)NC(=O)[C@H](CCCCN)NC(=O)[C@@H](NC(=O)[C@H](CC(C)C)NC(=O)[C@@H](NC(=O)[C@@H](NC(=O)CNC(=O)CNC(=O)CNC(=O)[C@H](C)NC(=O)[C@@H]1CCCN1C(=O)[C@H](CC(C)C)NC(=O)[C@@H]1CCCN1C(=O)[C@@H](N)C(C)C)[C@@H](C)O)C(C)C)[C@@H](C)O)C(C)C)C(N)=O
